In the supplement of paper PMC10331698:
± gives the standard deviation of the averaged measurements.

Assays:
Experiment in all cases: level (log10 ratio to DMSO vehicle control); higher = higher biomarker level / cell amount than vehicle control
[1] = compound: CCOC(=O)CC(=O)C(F)(F)C(F)(F)F [Ethyl pentafluoropropionyl acetate] (in DMSO)
Procedure: (§1)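 BioMAP Diversity Plus panel of 12 human primary cell co-culture systems (3C, 4H, LPS, SAg, BT, BF4T, BE3C, CASM3C, HDF3CGF, KF3CT, MyoF, Mphg). Compounds were added 1 h before stimulation and left for 24 h (MyoF 48 h; BT 72 h for soluble read-outs or 6 d for IgG). Biomarkers were read by ELISA, cytotoxicity by SRB, PBMC viability and proliferation by Alamar Blue. Each well value was divided by the mean of 8 DMSO control wells on the same plate and log10 transformed; duplicate blinded samples were tested at 4 concentrations.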

[2] = compound: C[C@@H]1C[C@H]2[C@@H]3CCC4=CC(=O)C=C[C@]4(C)[C@@]3(F)[C@@H](O)C[C@]2(C)[C@@]1(O)C(=O)COP(=O)(O)O [Dexamethasone sodium phosphate] (in DMSO)
Procedure: as §1

[3] = compound: O=C(O)C(F)(F)C(F)(F)C(F)(F)C(F)(F)C(=O)O [Octafluoroadipic acid] (in DMSO)
Procedure: as §1

[4] = compound: O=S(=O)(O)C(F)(F)C(F)(F)OC(F)(F)C(F)(F)F [Perfluoro(2-ethoxyethane)sulfonic acid] (in DMSO)
Procedure: as §1

[5] = compound: OCC(F)(F)C(F)(F)C(F)(F)C(F)(F)C(F)(F)C(F)(F)CO [1H,1H,8H,8H-Perfluorooctane-1,8-diol] (in DMSO)
Procedure: as §1

[6] = compound: OCCC(F)(F)C(F)(F)C(F)(F)C(F)(F)F [4:2 Fluorotelomer alcohol] (in DMSO)
Procedure: as §1

Test System	level (log10) ([1]; 6700 nM)	level (log10) ([1]; 20000 nM)	level (log10) ([1]; 60000 nM)	level (log10) ([2]; 1500 nM)	level (log10) ([2]; 4400 nM)	level (log10) ([2]; 13000 nM)	level (log10) ([2]; 40000 nM)	level (log10) ([3]; 6700 nM)	level (log10) ([3]; 20000 nM)	level (log10) ([3]; 60000 nM)	level (log10) ([4]; 6700 nM)	level (log10) ([4]; 20000 nM)	level (log10) ([4]; 60000 nM)	level (log10) ([5]; 6700 nM)	level (log10) ([5]; 20000 nM)	level (log10) ([5]; 60000 nM)	level (log10) ([6]; 6700 nM)	level (log10) ([6]; 20000 nM)	level (log10) ([6]; 60000 nM)
KF3CT:uPA	0.01 ± 0.018	0.0095 ± 0.016	-0.006 ± 0.023	0 ± 0.011	0.012 ± 0.0085	-0.0085 ± 0.00071	-0.006 ± 0.017	-0.0045 ± 0.039	-0.0065 ± 0.028	-0.0055 ± 0.026	0.013 ± 0.011	0.006 ± 0.021	0.0055 ± 0.022	0.0085 ± 0.0078	-0.017 ± 0.02	-0.0115 ± 0.011	-0.0105 ± 0.039	-0.0185 ± 0.0021	0.017 ± 0.027
CASM3C:Serum Amyloid A	0.0005 ± 0.0035	-0.012 ± 0.0014	0.0155 ± 0.029	0.489 ± 0.034	0.473 ± 0.015	0.4675 ± 0.0021	0.469 ± 0.022	-0.032 ± 0.037	-0.0515 ± 0.011	0.0105 ± 0.005	0.029 ± 0.044	0.133 ± 0.18	0.344 ± 0.22	-0.013 ± 0.038	-0.0215 ± 0.033	-0.022 ± 0.035	-0.081 ± 0.081	-0.0345 ± 0.023	-0.013 ± 0.1
lMphg:CCL2/MCP-1	-0.023 ± 0.045	-0.0135 ± 0.021	0.0125 ± 0.037	-0.0595 ± 0.0078	-0.103 ± 0.0064	-0.117 ± 0.021	-0.126 ± 0.0064	0.0135 ± 0.013	-0.008 ± 0.016	0.028 ± 0.059	-0.01 ± 0.03	0.005 ± 0.028	-0.002 ± 0.0042	-0.017 ± 0.0071	-0.005 ± 0.0042	0.008 ± 0.031	-0.018 ± 0.024	-0.0325 ± 0.0035	-0.014 ± 0.031
CASM3C:CXCL8/IL-8	0.0045 ± 0.0035	0	0.0035 ± 0.0078	-0.075 ± 0.044	-0.0815 ± 0.023	-0.092 ± 0.0057	-0.084 ± 0.0042	-0.0005 ± 0.0092	-0.002 ± 0.0071	0.0045 ± 0.022	-0.0095 ± 0.00071	-0.0055 ± 0.0078	0.0265 ± 0.005	-0.007 ± 0.027	-0.0135 ± 0.022	0.007 ± 0.011	-0.002 ± 0.0028	0.0035 ± 0.026	0.019 ± 0.031
HDF3CGF:SRB	0.007 ± 0.027	-0.0005 ± 0.032	0.0025 ± 0.021	0.0165 ± 0.0064	0.0285 ± 0.025	0.0515 ± 0.03	0.0415 ± 0.07	-0.033 ± 0.023	0.0135 ± 0.037	-0.0005 ± 0.042	-0.02 ± 0.0085	-0.017 ± 0.013	0.0085 ± 0.1	-0.043 ± 0.052	-0.0135 ± 0.056	-0.0405 ± 0.1	-0.0105 ± 0.015	-0.022 ± 0.0028	0.011 ± 0.013
KF3CT:CCL2/MCP-1	-0.0355 ± 0.0064	-0.045 ± 0.035	0.001 ± 0.071	-0.0015 ± 0.08	-0.0565 ± 0.049	-0.0105 ± 0.0035	-0.033 ± 0.016	-0.0165 ± 0.043	-0.0265 ± 0.00071	0.0285 ± 0.026	-0.0025 ± 0.013	-0.002 ± 0.016	0.0115 ± 0.032	-0.017 ± 0.0099	-0.0235 ± 0.03	0.0005 ± 0.081	-0.001 ± 0.02	-0.0675 ± 0.035	0.009 ± 0.048
BE3C:MMP-9	0.006 ± 0.044	-0.0145 ± 0.033	-0.0065 ± 0.013	-0.02 ± 0.0028	-0.0185 ± 0.013	-0.013 ± 0.0028	-0.036 ± 0.0099	-0.0065 ± 0.022	-0.002 ± 0.016	0.0065 ± 0.0064	-0.0015 ± 0.00071	-0.0005 ± 0.015	0.0265 ± 0.012	-0.001 ± 0.028	0.0005 ± 0.016	0.0015 ± 0.005	0.0015 ± 0.0078	-0.014 ± 0.013	0.009 ± 0.011
CASM3C:SRB	0.0035 ± 0.0021	0.0015 ± 0.0035	0.002 ± 0.011	-0.0005 ± 0.016	-0.008 ± 0.017	-0.013 ± 0.0057	-0.0115 ± 0.00071	-0.006 ± 0.0057	-0.0025 ± 0.005	-0.006 ± 0.0057	-0.002 ± 0.0028	-0.003 ± 0.0028	0.001 ± 0.0071	-0.001 ± 0.0085	-0.001 ± 0.0085	-0.007 ± 0.011	0.0045 ± 0.0035	-0.008	0.0015 ± 0.0092
HDF3CGF:CCL2/MCP-1	-0.022 ± 0.0042	-0.0135 ± 0.005	0.009 ± 0.047	-0.015 ± 0.035	-0.0405 ± 0.023	-0.038 ± 0.0099	-0.044 ± 0.0085	-0.0025 ± 0.052	0.0075 ± 0.036	0 ± 0.033	0.014 ± 0.0057	0.0175 ± 0.0078	0.035 ± 0.031	-0.012	-0.0175 ± 0.015	-0.0185 ± 0.016	-0.0305 ± 0.08	-0.043 ± 0.027	-0.0315 ± 0.052
CASM3C:HLA-DR	-0.0125 ± 0.0064	-0.0185 ± 0.015	-0.015 ± 0.014	0.0495 ± 0.06	0.0425 ± 0.022	0.02 ± 0.013	0.0355 ± 0.023	-0.0035 ± 0.019	-0.0095 ± 0.032	-0.0025 ± 0.0078	0.011 ± 0.0099	0 ± 0.02	-0.005 ± 0.016	-0.0005 ± 0.018	-0.026 ± 0.016	-0.014 ± 0.014	-0.0195 ± 0.049	-0.022 ± 0.028	0.002 ± 0.037
KF3CT:CD54/ICAM-1	-0.003 ± 0.024	0.006 ± 0.014	0.0075 ± 0.03	-0.0125 ± 0.0078	0.01 ± 0.018	-0.012 ± 0.011	-0.003 ± 0.013	-0.0045 ± 0.0035	-0.0105 ± 0.0078	-0.009 ± 0.018	-0.002 ± 0.0099	-0.0275 ± 0.0064	-0.0165 ± 0.00071	-0.009 ± 0.0042	0.0015 ± 0.0092	-0.01 ± 0.018	-0.0115 ± 0.0092	0.0015 ± 0.019	-0.009 ± 0.0057
KF3CT:MMP-9	-0.0165 ± 0.013	-0.0005 ± 0.012	-0.011 ± 0.0099	-0.0065 ± 0.00071	-0.002	-0.023 ± 0.014	-0.0175 ± 0.013	-0.0065 ± 0.005	0.0085 ± 0.015	0.0175 ± 0.015	0.009 ± 0.0085	0.036 ± 0.016	0.0515 ± 0.00071	-0.003 ± 0.0028	0.009 ± 0.0014	0.058 ± 0.0099	-0.033 ± 0.011	-0.0435 ± 0.028	0.002 ± 0.034
3C:CD141/Thrombomodulin	-0.013 ± 0.0099	-0.0185 ± 0.021	-0.0455 ± 0.00071	0.0105 ± 0.074	-0.015 ± 0.052	-0.0055 ± 0.04	-0.045 ± 0.062	0.0125 ± 0.025	0.016 ± 0.03	0.0195 ± 0.05	0.0085 ± 0.018	-0.0145 ± 0.036	-0.023 ± 0.0028	-0.015 ± 0.0057	-0.0075 ± 0.016	-0.001 ± 0.013	-0.0175 ± 0.013	-0.001 ± 0.0085	-0.0005 ± 0.019
lMphg:CD62E/E-Selectin	-0.036 ± 0.02	-0.0245 ± 0.012	0.0115 ± 0.025	-0.147 ± 0.0028	-0.212 ± 0.0042	-0.239 ± 0.089	-0.292 ± 0.061	-0.0025 ± 0.036	-0.0275 ± 0.057	-0.028 ± 0.064	0.0175 ± 0.0092	0.0275 ± 0.0092	0.0425 ± 0.0092	-0.0195 ± 0.028	-0.004 ± 0.013	-0.0075 ± 0.0064	-0.0075 ± 0.022	-0.003 ± 0.013	0.0185 ± 0.0021
HDF3CGF:CXCL10/IP-10	-0.0125 ± 0.015	-0.0105 ± 0.022	-0.046 ± 0.0085	0.034 ± 0.025	0.0615 ± 0.052	0.06 ± 0.057	0.009 ± 0.072	0 ± 0.0057	-0.005 ± 0.0028	0.001 ± 0.0085	0.0105 ± 0.033	-0.0145 ± 0.05	-0.0105 ± 0.056	-0.01 ± 0.014	0.018 ± 0.027	0.021 ± 0.034	-0.0075 ± 0.025	-0.002 ± 0.023	-0.0095 ± 0.0035
